Results on seven compounds are retold here after ChEMBL document CHEMBL5370550, “Structure-guided optimization of adenosine mimetics as selective and potent inhibitors of coronavirus nsp14 N7-methyltransferases” (Eur J Med Chem, 2023).

What is called inhibition is the change of the read-out against control, counted positive when it falls. Broadly, the residual activity is the signal under treatment as a percentage of the control signal. In general, IC50 refers to the point on the concentration scale where inhibition reaches its midpoint.

Each structure is given as a SMILES string. The source made the active and inactive calls. The calls are words filed in the database; no cut-off is given here.

mRNA cap guanine-N(7) methyltransferase, sequence (O43148 whole entry): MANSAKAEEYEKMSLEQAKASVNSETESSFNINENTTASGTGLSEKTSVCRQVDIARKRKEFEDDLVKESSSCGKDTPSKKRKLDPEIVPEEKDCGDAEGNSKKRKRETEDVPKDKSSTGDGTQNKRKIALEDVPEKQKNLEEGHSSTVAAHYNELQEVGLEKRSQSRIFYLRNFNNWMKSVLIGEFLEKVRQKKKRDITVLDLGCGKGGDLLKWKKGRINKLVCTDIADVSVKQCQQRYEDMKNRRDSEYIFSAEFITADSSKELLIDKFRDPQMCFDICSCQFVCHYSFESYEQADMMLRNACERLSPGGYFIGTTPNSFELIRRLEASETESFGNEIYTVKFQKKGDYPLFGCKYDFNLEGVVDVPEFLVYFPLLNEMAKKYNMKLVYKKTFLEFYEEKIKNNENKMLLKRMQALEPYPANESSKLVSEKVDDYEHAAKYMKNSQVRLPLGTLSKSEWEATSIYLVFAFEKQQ
Nonstructural protein 5 (Dengue virus), sequence (V5TFZ2 as listed by the source): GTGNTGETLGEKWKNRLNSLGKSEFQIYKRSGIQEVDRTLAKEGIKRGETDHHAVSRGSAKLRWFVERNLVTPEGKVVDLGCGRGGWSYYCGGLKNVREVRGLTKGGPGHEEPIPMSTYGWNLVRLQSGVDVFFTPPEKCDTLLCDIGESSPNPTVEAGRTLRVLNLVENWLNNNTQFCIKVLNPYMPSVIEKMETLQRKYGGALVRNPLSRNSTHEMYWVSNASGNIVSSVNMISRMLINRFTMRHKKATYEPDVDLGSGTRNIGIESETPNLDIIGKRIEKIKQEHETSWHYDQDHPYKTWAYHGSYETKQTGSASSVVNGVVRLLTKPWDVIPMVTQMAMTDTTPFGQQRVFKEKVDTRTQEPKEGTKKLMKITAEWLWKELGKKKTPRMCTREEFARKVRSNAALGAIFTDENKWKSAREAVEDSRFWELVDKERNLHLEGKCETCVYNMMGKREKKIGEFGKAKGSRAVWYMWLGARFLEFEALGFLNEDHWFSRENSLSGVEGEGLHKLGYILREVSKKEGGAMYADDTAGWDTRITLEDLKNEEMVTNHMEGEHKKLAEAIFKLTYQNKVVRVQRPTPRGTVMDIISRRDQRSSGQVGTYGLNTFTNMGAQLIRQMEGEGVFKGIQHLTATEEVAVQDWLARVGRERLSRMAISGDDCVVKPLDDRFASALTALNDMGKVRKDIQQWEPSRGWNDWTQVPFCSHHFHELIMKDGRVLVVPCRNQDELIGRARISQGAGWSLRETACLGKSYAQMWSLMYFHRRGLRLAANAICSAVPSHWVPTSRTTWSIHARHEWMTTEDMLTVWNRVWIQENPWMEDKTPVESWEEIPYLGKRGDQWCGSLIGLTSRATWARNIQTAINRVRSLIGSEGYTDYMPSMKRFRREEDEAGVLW

One data set concerns the target Replicase polyprotein 1ab (Severe acute respiratory syndrome-related coronavirus) (UniProt P0C6X7). As to conditions: dose 5.0 µM, time 30.0 min.
Compound `Cc1ccc(S(=O)(=O)N(C)C[C@H]2O[C@@H](n3cc(C#Cc4cnc5ccccc5c4)c4c(N)ncnc43)[C@H](O)[C@@H]2O)cc1Cl` returned an inhibition of 1.5%.
`CCN(C[C@H]1O[C@@H](n2cnc3c(NC)ncnc32)[C@H](O)[C@@H]1O)S(=O)(=O)c1ccc(C)c([N+](=O)[O-])c1` yielded an inhibition of 20.1%.
Still for that read-out and setting: with `Cc1ccc(S(=O)(=O)N(C)C[C@H]2O[C@@H](n3cc(C#Cc4ccccc4)c4c(N)ncnc43)[C@H](O)[C@@H]2O)cc1[N+](=O)[O-]` the figure was 1%; with `Cc1cc(S(=O)(=O)NC[C@H]2O[C@@H](n3cnc4c(=O)[nH]cnc43)[C@H](O)[C@@H]2O)ccc1Cl`, 71.8%; with `CCN(C[C@H]1O[C@@H](n2cnc3c(NC)ncnc32)[C@H](O)[C@@H]1O)S(=O)(=O)c1ccc(C)c(Cl)c1`, 10.9%.
In the case of `CCN(C[C@H]1O[C@@H](n2cnc3c(N)ncnc32)[C@H](O)[C@@H]1O)S(=O)(=O)c1ccc(OC)c(C#N)c1`, the inhibition was 4.2%.
`Cc1ccc(S(=O)(=O)N(C)C[C@H]2O[C@@H](n3cc(C#Cc4ccccc4)c4c(N)ncnc43)[C@H](O)[C@@H]2O)cc1Cl` gave an inhibition of 2.4%.

In a further data set the target is Replicase polyprotein 1ab (Severe acute respiratory syndrome coronavirus 2) (UniProt P0DTD1). The following applies: dose 5.0 µM, time 30.0 min, values are per cent of control.
Compound `Cc1ccc(S(=O)(=O)N(C)C[C@H]2O[C@@H](n3cc(C#Cc4cnc5ccccc5c4)c4c(N)ncnc43)[C@H](O)[C@@H]2O)cc1Cl` yielded a residual activity of 3.2%.
Turning to `CCN(C[C@H]1O[C@@H](n2cnc3c(NC)ncnc32)[C@H](O)[C@@H]1O)S(=O)(=O)c1ccc(C)c([N+](=O)[O-])c1`, the residual activity is 10.9%.
Turning to `Cc1ccc(S(=O)(=O)N(C)C[C@H]2O[C@@H](n3cc(C#Cc4ccccc4)c4c(N)ncnc43)[C@H](O)[C@@H]2O)cc1[N+](=O)[O-]`, the residual activity was found to be 1%.
On the same count and under the same terms, in the case of `Cc1cc(S(=O)(=O)NC[C@H]2O[C@@H](n3cnc4c(=O)[nH]cnc43)[C@H](O)[C@@H]2O)ccc1Cl` it was 87.6%; in that of `CCN(C[C@H]1O[C@@H](n2cnc3c(NC)ncnc32)[C@H](O)[C@@H]1O)S(=O)(=O)c1ccc(C)c(Cl)c1`, 8.3%; in that of `Cc1ccc(S(=O)(=O)N(C)C[C@H]2O[C@@H](n3cc(C#Cc4ccccc4)c4c(N)ncnc43)[C@H](O)[C@@H]2O)cc1Cl`, 7%.

Tested on in another data set: not listed separately
The data set can be described thus: Cytotoxicity against Green monkey VeroE6/TMPRSS2 cells assessed as reduction in cell viability upto 10 uM by CellTiter Blue assay. As to conditions: chlorocebus sabaeus, veroe6/tmprss2, 10 µM. The data set is classed as toxicity, cell-based. In general terms: Alamar Blue is a resazurin reagent that responds to reducing activity.
As to `Cc1ccc(S(=O)(=O)N(C)C[C@H]2O[C@@H](n3cc(C#Cc4cnc5ccccc5c4)c4c(N)ncnc43)[C@H](O)[C@@H]2O)cc1Cl`, the Activity result is reported as “Non-Toxic”.
On to `Cc1ccc(S(=O)(=O)N(C)C[C@H]2O[C@@H](n3cc(C#Cc4ccccc4)c4c(N)ncnc43)[C@H](O)[C@@H]2O)cc1[N+](=O)[O-]`, for which the Activity entry is “Non-Toxic”.
Turning to `Cc1ccc(S(=O)(=O)N(C)C[C@H]2O[C@@H](n3cc(C#Cc4ccccc4)c4c(N)ncnc43)[C@H](O)[C@@H]2O)cc1Cl`, the Activity result is listed as “Non-Toxic”.

The next data set concerns the target mRNA cap guanine-N(7) methyltransferase (Homo sapiens, UniProt O43148). As to conditions: dose 5.0 µM, time 30.0 min.
Compound `Cc1ccc(S(=O)(=O)N(C)C[C@H]2O[C@@H](n3cc(C#Cc4cnc5ccccc5c4)c4c(N)ncnc43)[C@H](O)[C@@H]2O)cc1Cl` displayed an inhibition of 90.7%.
In the case of `CCN(C[C@H]1O[C@@H](n2cnc3c(NC)ncnc32)[C@H](O)[C@@H]1O)S(=O)(=O)c1ccc(C)c([N+](=O)[O-])c1`, the inhibition entry was “inactive”.
On to `Cc1ccc(S(=O)(=O)N(C)C[C@H]2O[C@@H](n3cc(C#Cc4ccccc4)c4c(N)ncnc43)[C@H](O)[C@@H]2O)cc1[N+](=O)[O-]`, for which the inhibition entry was “inactive”.
For the compound `Cc1cc(S(=O)(=O)NC[C@H]2O[C@@H](n3cnc4c(=O)[nH]cnc43)[C@H](O)[C@@H]2O)ccc1Cl`, the inhibition result is “inactive”.
On to `CCN(C[C@H]1O[C@@H](n2cnc3c(NC)ncnc32)[C@H](O)[C@@H]1O)S(=O)(=O)c1ccc(C)c(Cl)c1`, for which the inhibition worked out at 78%.
In turn, `CCN(C[C@H]1O[C@@H](n2cnc3c(N)ncnc32)[C@H](O)[C@@H]1O)S(=O)(=O)c1ccc(OC)c(C#N)c1` returned an inhibition of 69.5%.
Take `Cc1ccc(S(=O)(=O)N(C)C[C@H]2O[C@@H](n3cc(C#Cc4ccccc4)c4c(N)ncnc43)[C@H](O)[C@@H]2O)cc1Cl`: the inhibition result was “inactive”.

The next data set concerns the target Nonstructural protein 5 (Dengue virus) (UniProt V5TFZ2). As to conditions: dengue virus type 3; dose 5.0 µM, time 30.0 min.
`Cc1ccc(S(=O)(=O)N(C)C[C@H]2O[C@@H](n3cc(C#Cc4cnc5ccccc5c4)c4c(N)ncnc43)[C@H](O)[C@@H]2O)cc1Cl` showed an inhibition of 97.7%.
Turning to `CCN(C[C@H]1O[C@@H](n2cnc3c(NC)ncnc32)[C@H](O)[C@@H]1O)S(=O)(=O)c1ccc(C)c([N+](=O)[O-])c1`, the inhibition is 97.1%.
Still for that read-out and setting: in the case of `Cc1ccc(S(=O)(=O)N(C)C[C@H]2O[C@@H](n3cc(C#Cc4ccccc4)c4c(N)ncnc43)[C@H](O)[C@@H]2O)cc1[N+](=O)[O-]` it was 93.3%; in that of `Cc1cc(S(=O)(=O)NC[C@H]2O[C@@H](n3cnc4c(=O)[nH]cnc43)[C@H](O)[C@@H]2O)ccc1Cl`, “inactive”.
Turning to `CCN(C[C@H]1O[C@@H](n2cnc3c(NC)ncnc32)[C@H](O)[C@@H]1O)S(=O)(=O)c1ccc(C)c(Cl)c1`, the inhibition result was “inactive”.
For `CCN(C[C@H]1O[C@@H](n2cnc3c(N)ncnc32)[C@H](O)[C@@H]1O)S(=O)(=O)c1ccc(OC)c(C#N)c1`, the inhibition result is “inactive”.
For the compound `Cc1ccc(S(=O)(=O)N(C)C[C@H]2O[C@@H](n3cc(C#Cc4ccccc4)c4c(N)ncnc43)[C@H](O)[C@@H]2O)cc1Cl`, the inhibition stood at 94.8%.

In another data set the test system is SARS-CoV-2. The data set can be described thus: Antiviral activity against SARS-CoV-2 B.1 infected in Green monkey VeroE6/TMPRSS2 cells assessed as viral replication inhibition at 10 uM incubated for 2 days by qRT-PCR analysis relative to control. The data set is classed as functional. The following applies: Severe acute respiratory syndrome coronavirus 2, time 2.0 day. (Quantitative PCR measures a nucleic acid by following its amplification.)
As for `Cc1ccc(S(=O)(=O)N(C)C[C@H]2O[C@@H](n3cc(C#Cc4ccccc4)c4c(N)ncnc43)[C@H](O)[C@@H]2O)cc1[N+](=O)[O-]`, the result was inactive.
As to `Cc1ccc(S(=O)(=O)N(C)C[C@H]2O[C@@H](n3cc(C#Cc4ccccc4)c4c(N)ncnc43)[C@H](O)[C@@H]2O)cc1Cl`, the result was inactive.

Staying with this data set, now noted: time 2 day.
In the case of `Cc1ccc(S(=O)(=O)N(C)C[C@H]2O[C@@H](n3cc(C#Cc4cnc5ccccc5c4)c4c(N)ncnc43)[C@H](O)[C@@H]2O)cc1Cl`, the Activity is recorded as 50%.

The next data set concerns the target Replicase polyprotein 1ab (Severe acute respiratory syndrome coronavirus 2, UniProt P0DTD1).
Settings: not given
Turning to `Cc1ccc(S(=O)(=O)N(C)C[C@H]2O[C@@H](n3cc(C#Cc4cnc5ccccc5c4)c4c(N)ncnc43)[C@H](O)[C@@H]2O)cc1Cl`, the midpoint of inhibition, the IC50, lay at 2.07 nM.
Still for that read-out and setting: with `CCN(C[C@H]1O[C@@H](n2cnc3c(NC)ncnc32)[C@H](O)[C@@H]1O)S(=O)(=O)c1ccc(C)c([N+](=O)[O-])c1` the figure was 187 nM.
`Cc1ccc(S(=O)(=O)N(C)C[C@H]2O[C@@H](n3cc(C#Cc4ccccc4)c4c(N)ncnc43)[C@H](O)[C@@H]2O)cc1[N+](=O)[O-]` registered an IC50 of 9.5 nM.
Compound `CCN(C[C@H]1O[C@@H](n2cnc3c(NC)ncnc32)[C@H](O)[C@@H]1O)S(=O)(=O)c1ccc(C)c(Cl)c1` gave a half-maximal inhibitory concentration (IC50) of 130 nM.
As for `Cc1ccc(S(=O)(=O)N(C)C[C@H]2O[C@@H](n3cc(C#Cc4ccccc4)c4c(N)ncnc43)[C@H](O)[C@@H]2O)cc1Cl`, half-maximal inhibition (IC50) required 25.6 nM.
